Earlier results on 57 molecules are cited in paper PMC8025584, “Identification of multipotent drugs for COVID-19 therapeutics with the evaluation of their SARS-CoV2 inhibitory activity” (Computational and Structural Biotechnology Journal, 2021).

Counter-ions that a name gives are not always drawn. Like-named read-outs stand apart in the source and are kept apart here.

This data set relates to differentially expressed human proteins in COVID-19. The note with it: cited from earlier work.
Where [1] appears, read: gene TNF, drug-gene interaction listed in DGIdb export, ref DGIdb.
Setting [2] is: gene CCR1, drug-gene interaction listed in DGIdb export, ref DGIdb.
Where [3] appears, read: gene HCK, drug-gene interaction listed in DGIdb export, ref DGIdb.
[4] abbreviates: gene CACNA1A, drug-gene interaction listed in DGIdb export, ref DGIdb.

On to `NS(=O)(=O)c1ccc(S(=O)(=O)Nc2cccc3c(Cl)c[nH]c23)cc1`, for which the interaction_types result (gene CA1, ref DGIdb) is reported as “inhibitor”.
With `NS(=O)(=O)c1cc2c(cc1Cl)NCNS2(=O)=O` [HYDROCHLOROTHIAZIDE, reference compound], where the note is “gene CA1, ref DGIdb”, the interaction_types entry is on record as “inhibitor”.
Regarding `C[C@H](NC(=O)C(=O)Nc1ccccc1C(C)(C)C)C(=O)N[C@@H](CC(=O)O)C(=O)COc1c(F)c(F)cc(F)c1F`, the interaction_types entry (gene CASP4, ref DGIdb) was “inhibitor” and the interaction_types entry (gene CASP5, ref DGIdb) was “inhibitor”.
Regarding `COC1=CC(c2cc3ccccc3[nH]2)=N/C1=C\c1[nH]c(C)cc1C` [OBATOCLAX MESYLATE], the interaction_types result (gene BCL2A1, ref DGIdb) is “inhibitor”.
As to `Nc1cccc2c1C(=O)N(C1CCC(=O)NC1=O)C2=O` (stereo not shown) [POMALIDOMIDE], the interaction_types result under setting [1] is “inhibitor”.
`CC(=O)O[C@H]1C(=O)[C@@]2(C)[C@H]([C@H](OC(=O)c3ccccc3)[C@]3(O)C[C@H](OC(=O)[C@H](O)[C@@H](NC(=O)c4ccccc4)c4ccccc4)C(C)=C1C3(C)C)[C@]1(OC(C)=O)CO[C@@H]1C[C@@H]2O` [Paclitaxel, reference compound]: the interaction_types result (gene TUBA4A, ref DGIdb) was “inhibitor”.
Take `CCOC(=O)/C=C(C)/C=C/C=C(C)/C=C/c1c(C)cc(OC)c(C)c1C` [ETRETINATE]: the interaction_types result (gene RXRB, ref DGIdb) is given as “agonist”.
With `NS(=O)(=O)c1cc2c(cc1Cl)N=C(CSCc1ccccc1)NS2(=O)=O` [BENZTHIAZIDE, reference compound], where the note is “gene CA1, ref DGIdb”, the interaction_types result is “inhibitor”.
As for `CN(C)CC/C=C1/c2ccccc2COc2ccc(CC(=O)O)cc21` [OLOPATADINE, reference compound], the interaction_types result (gene S100A12, ref DGIdb) is “antagonist”.
For `C=C1C[C@@H]2CC[C@@]34C[C@H]5O[C@H]6[C@@H](O3)[C@H]3O[C@H](CC[C@@H]3O[C@H]6[C@H]5O4)CC(=O)C[C@@H]3[C@@H](OC)[C@@H](C[C@H](O)CN)O[C@H]3C[C@H]3O[C@@H](CC[C@@H]1O2)C[C@@H](C)C3=C` [ERIBULIN MESYLATE], for the setting “gene TUBA4A, ref DGIdb”, the interaction_types entry is on record as “inhibitor”.
For `NS(=O)(=O)c1cc2c(cc1Cl)N=CNS2(=O)=O` [CHLOROTHIAZIDE], for the setting “gene CA1, ref DGIdb”, the interaction_types result is reported as “inhibitor”.
For “INTERLEUKIN 15, RECOMBINANT NON-GLYCOSYLATED”, the interaction_types entry (gene IL2RG, ref DGIdb) was “agonist”.
With `Nc1ncnc2c1ncn2[C@@H]1O[C@H](CO)[C@@H](O)[C@H]1O` [ADENOSINE, reference compound], the interaction_types result (gene PI4K2B, ref DGIdb) is on record as “inhibitor”.
For INFLIXIMAB, the interaction_types result under setting [1] is reported as “inhibitor”.
`COc1cc2nc(N3CCN(C(=O)C4CCCO4)CC3)nc(N)c2cc1OC` (stereo not shown) [TERAZOSIN]: under “gene KCNH7, ref DGIdb”, the interaction_types entry is on record as “inhibitor”.
On to `CNC(=O)c1cc(Cl)c(OC(C)(C)C(=O)O)cc1OC[C@@H](O)CN1CCC2(CC1)Cc1cc(Cl)ccc1O2` [AZD4818], for which, under setting [2], the interaction_types entry is recorded as “antagonist”.
With `COC(=O)c1ccc2c(c1)NC(=O)/C2=C(\Nc1ccc(N(C)C(=O)CN2CCN(C)CC2)cc1)c1ccccc1` [NINTEDANIB, reference compound], the interaction_types entry was “inhibitor” (gene FGR, ref DGIdb) and “inhibitor” under setting [3].
Take `COc1cc2nc(N3CCN(C(=O)c4ccco4)CC3)nc(N)c2cc1OC` [PRAZOSIN]: the interaction_types entry (gene KCNH7, ref DGIdb) was “inhibitor”.
For the molecule `CC(C)CCC[C@@H](C)[C@H]1CC[C@H]2[C@@H]3CC=C4C[C@@H](O)CC[C@]4(C)[C@H]3CC[C@]12C` [CHOLESTEROL], under “gene CLEC4E, ref DGIdb”, the interaction_types entry is “ligand”.
For `CCCCCc1cccc(CC(=O)O)c1` [SETOGEPRAM], the interaction_types entry (gene GPR84, ref DGIdb) is listed as “antagonist”.
For `COc1ccccc1OCCNCC(O)COc1cccc2[nH]c3ccccc3c12` (stereo not shown) [CARVEDILOL, reference compound], the interaction_types result (gene KCNJ2, ref DGIdb) is “inhibitor”.
On to DROTRECOGIN ALFA (ACTIVATED), for which the interaction_types result (gene F5, drug-gene interaction listed in DGIdb export, ref DGIdb) is on record as “inhibitor”.
Regarding `CC1=NS(=O)(=O)c2cc(Cl)ccc2N1` [DIAZOXIDE], the interaction_types entry (gene CA1, ref DGIdb) was “inhibitor”.
`COc1cc(Nc2c(C#N)cnc3cc(OCCCN4CCN(C)CC4)c(OC)cc23)c(Cl)cc1Cl` [BOSUTINIB]: the interaction_types result under setting [3] was “inhibitor”.
For `CCC1=C[C@@H]2CN(C1)Cc1c([nH]c3ccccc13)[C@@](C(=O)OC)(c1cc3c(cc1OC)N(C)[C@H]1[C@@](O)(C(=O)OC)[C@H](OC(C)=O)[C@]4(CC)C=CCN5CC[C@]31[C@@H]54)C2` [VINORELBINE TARTRATE], the interaction_types entry (gene TUBA4A, ref DGIdb) was “inhibitor”.
Regarding `NC(=O)c1cnc(N[C@@H]2CCCC[C@@H]2N)nc1Nc1cccc(-n2nccn2)c1` [PRT-2607], where the note is “gene FGR, ref DGIdb”, the interaction_types entry is reported as “inhibitor”.
Consider `C=CC(=O)N1CCC[C@@H](n2nc(-c3ccc(Oc4ccccc4)cc3)c3c(N)ncnc32)C1` [IBRUTINIB], for which the interaction_types entry under setting [3] is “inhibitor”.
SARGRAMOSTIM: the interaction_types result (gene CSF2RB, ref DGIdb) is on record as “agonist”.
As to `NS(=O)(=O)c1nnc(NS(=O)(=O)c2ccccc2)s1` [BENZOLAMIDE], the interaction_types result (gene CA1, ref DGIdb) is “inhibitor”.
`CCCN(c1ccncc1F)n1cc(C)c2ccccc21` [[…]]: the interaction_types entry (gene KCNH7, ref DGIdb) is listed as “blocker”.
For `C1CCC2(C1)C1CN(CC3CC3)CC2CN(CC2CC2)C1`, the interaction_types result (gene KCNH7, ref DGIdb) was “blocker”.
For `Nc1ncnc2c1ncn2[C@@H]1O[C@H](COP(=O)(O)OP(=O)(O)OP(=O)(O)O)[C@@H](O)[C@H]1O` [ADENOSINE TRIPHOSPHATE], the interaction_types result (gene P2RY13, ref DGIdb) is reported as “agonist”.
`CN[C@@H](C)[C@@H](O)c1ccccc1` [PSEUDOEPHEDRINE]: under setting [1], the interaction_types entry is listed as “inhibitor”.
Take `Nc1ncc(-c2cnn(CCO)c2)c2scc(-c3ccc(NC(=O)Nc4cccc(F)c4)cc3)c12` [ILORASERTIB]: the interaction_types result (gene FGR, ref DGIdb) is recorded as “inhibitor” and the interaction_types entry under setting [3] is “inhibitor”.
Take `N[C@@H](CCC(=O)N[C@@H](CS)C(=O)NCC(=O)O)C(=O)O` [GLUTATHIONE]: the interaction_types result is reported as “cofactor”.
`CC(C)[C@@H](NC(=O)NCC(C)(C)O)C(=O)N1CC[C@](O)(c2ccc(Cl)cc2)C(C)(C)C1` [BMS-817399]: the interaction_types result under setting [2] was “antagonist”.
Regarding `CCCCCCCN(CC)CCCC(O)c1ccc(NS(C)(=O)=O)cc1` (stereo not shown) [IBUTILIDE, reference compound], the interaction_types entry (gene KCNH7, ref DGIdb) is reported as “inhibitor”.
Take `CC(=O)O[C@@]12CO[C@@H]1C[C@H](O)[C@@]1(C)C(=O)[C@H](O)C3=C(C)[C@@H](OC(=O)[C@H](O)[C@@H](NC(=O)OC(C)(C)C)c4ccccc4)C[C@@](O)([C@@H](OC(=O)c4ccccc4)[C@H]21)C3(C)C` [DOCETAXEL, reference compound]: the interaction_types result (gene TUBA4A, ref DGIdb) was “inhibitor”.
As for `NCC1(CC(=O)O)CCCCC1` [GABAPENTIN, reference compound], the interaction_types result under setting [4] was “modulator”.
As for `CC1=C(/C=C/C(C)=C\C=C\C(C)=C\C(=O)O)C(C)(C)CCC1` [ALITRETINOIN, reference compound], the interaction_types result (gene RXRB, ref DGIdb) is on record as “agonist”.
Consider `CC(C)COCC(CN(Cc1ccccc1)c1ccccc1)N1CCCC1` (stereo not shown) [BEPRIDIL HYDROCHLORIDE], for which, under setting [4], the interaction_types entry is “blocker”.
As for `CCC[C@H](Nc1nc(-c2ccc(NC(=O)NCC)c(OC)c2)ncc1C)c1cccnc1` [LEXIBULIN], where the note is “gene TUBA4A, ref DGIdb”, the interaction_types result is “inhibitor”.
With `CCCCc1c(-c2ccc(OC)cc2)[nH]c2nccnc12` [ALOISINE], the interaction_types result (gene PTK2B, ref DGIdb) is “inhibitor”.
With `CO[C@H]1C(=O)[C@]2(C)[C@@H](OC)C[C@H]3OC[C@@]3(OC(C)=O)[C@H]2[C@H](OC(=O)c2ccccc2)[C@]2(O)C[C@H](OC(=O)[C@H](O)[C@@H](NC(=O)OC(C)(C)C)c3ccccc3)C(C)=C1C2(C)C` [CABAZITAXEL, reference compound], the interaction_types entry (gene TUBA4A, ref DGIdb) was “inhibitor¦binder”.
Take `CC(C)C[C@H](CN)CC(=O)O` [PREGABALIN, reference compound]: the interaction_types entry is on record as “modulator¦inhibitor”.
Turning to `COc1ccccc1OCC(O)COC(N)=O` (stereo not shown) [METHOCARBAMOL], the interaction_types entry (gene CA1, ref DGIdb) is “inhibitor”.
`CCCCc1oc2ccc(NS(C)(=O)=O)cc2c1C(=O)c1ccc(OCCCN(CCCC)CCCC)cc1` [DRONEDARONE HYDROCHLORIDE]: for the setting “gene KCNJ2, ref DGIdb”, the interaction_types entry is listed as “blocker”.
For `COc1ccc(-c2ccc3cc(C(=O)O)ccc3c2)cc1C12CC3CC(CC(C3)C1)C2`, the interaction_types entry (gene JUN, drug-gene interaction listed in DGIdb export, ref DGIdb) is on record as “antagonist” and the interaction_types entry (gene RXRB, ref DGIdb) was “agonist”.
As for `Nc1nc2nc[nH]c2c(=O)[nH]1` [GUANINE], the interaction_types entry (gene GCH1, ref DGIdb) is on record as “inhibitor”.
Take `C=CC(=O)N1CCC([C@@H]2CCNc3c(C(N)=O)c(-c4ccc(Oc5ccccc5)cc4)nn32)CC1` [ZANUBRUTINIB]: the interaction_types result (gene FGR, ref DGIdb) is listed as “inhibitor”.
Turning to TRASTUZUMAB EMTANSINE, the interaction_types entry is “inhibitor”.
As for `Nc1ncnc2c1ncn2[C@@H]1O[C@H](COP(=O)(O)OP(=O)(O)O)[C@@H](O)[C@H]1O` [ADENOSINE DIPHOSPHATE], the interaction_types entry (gene P2RY13, ref DGIdb) was “agonist”.
`NC(=O)[C@@H](CCC(F)(F)F)N(Cc1ccc(-c2ncon2)cc1F)S(=O)(=O)c1ccc(Cl)cc1`: the interaction_types entry (gene PSENEN, ref DGIdb) is listed as “inhibitor”.
Turning to `C=C(c1ccc(C(=O)O)cc1)c1cc2c(cc1C)C(C)(C)CCC2(C)C` [BEXAROTENE, reference compound], for the setting “gene RXRB, ref DGIdb”, the interaction_types entry is recorded as “activator¦agonist”.
With `N[C@@H](Cc1c[nH]cn1)C(=O)O` [HISTIDINE], for the setting “gene CA1, ref DGIdb”, the interaction_types result is reported as “activator”.
Regarding PEGFILGRASTIM, the interaction_types entry (gene CSF3R, ref DGIdb) is “agonist”.
`CN1CC[C@]23c4c5ccc(O)c4O[C@H]2[C@@H](O)C=C[C@H]3[C@H]1C5` [MORPHINE]: the interaction_types entry is on record as “activator”.
